# Calls of active or inactive are those of the source. No cut-off for these calls is given here.
# Key:
# [1] = Toxicity in BALB/C mouse xenografted with human MCF7 cells assessed as change in kidney morphology at 25 mg/kg,ip administrated every other day for 29 days; assay type: organism-based; conditions: in vivo, 696 h, time 29 day
# 4T1 [2] = test: Antitumor activity against mouse 4T1 cells implanted in BALB/C mouse assessed as upregulation of CD8A expression at 50 mg/kg,ip administrated daily for 14 days by immunohistochemical staining based analysis; assay type: functional, organism-based; conditions: time 14.0 day
# MCF7 [3] = test: Synergistic antitumor activity against human MCF7 cells xenografted in BALB/C mouse assessed as downregulation of C-Myc gene expression at 25 mg/kg,ip administrated every other day for 15 days in presence of 5 mg/kg tamoxifen oral administration by RT-qPCR analysis; assay type: functional, organism-based; conditions: time 15.0 day
# 4T1 [4] = test: Potentiation of etoposide induced antitumor activity against mouse 4T1 cells implanted in BALB/C mouse assessed as upregulation of CD8A expression at 25 mg/kg,ip administrated daily for 12 days in presence of 8 mg/kg etoposide administration by immunohistochemical staining based analysis; assay type: functional, organism-based; conditions: time 12.0 day
# [5] = Toxicity in BALB/C mouse xenografted with human MDA-MB-231 cells assessed as change in liver morphology at 50 mg/kg,ip administrated daily for 11 days; assay type: organism-based; conditions: in vivo, 264 h, time 11 day
# MCF7 [6] = test: Synergistic antiproliferative activity against human MCF7 cells assessed as downregulation of C-Myc gene expression at 2.5 uM incubated for 6 hrs in presence of fulvestrant by RT-qPCR analysis; assay type: functional, cell-based
# MCF7 [7] = test: Potentiation of etoposide induced antiproliferative activity against human MCF7 cells assessed as inhibition of colony formation at 2.5 uM incubated for 10 days in presence of etoposide by crystal violet staining based analysis; assay type: functional, cell-based; conditions: time 10.0 day
# MCF7 [8] = test: Antitumor activity against human MCF7 cells xenografted in BALB/C mouse assessed as downregulation of CCND1 gene expression at 50 mg/kg,ip administrated every other day for 29 days by RT-qPCR analysis; assay type: functional, organism-based; conditions: time 29.0 day
# MCF7 [9] = test: Antitumor activity against human MCF7 cells xenografted in BALB/C mouse assessed as upregulation of IFIT1 gene expression at 25 mg/kg,ip administrated every other day for 29 days by RT-qPCR analysis; assay type: functional, organism-based; conditions: time 29.0 day
# MCF7 [10] = test: Synergistic antiproliferative activity against human MCF7 cells assessed as downregulation of TFF1 gene expression at 2.5 uM incubated for 6 hrs in presence of fulvestrant by RT-qPCR analysis; assay type: functional, cell-based
# [11] = Toxicity in BALB/C mouse xenografted with human MDA-MB-231 cells assessed as change in heart morphology at 25 mg/kg,ip administrated daily for 11 days; assay type: organism-based; conditions: in vivo, 264 h, time 11 day
# [12] = Toxicity in BALB/C mouse xenografted with human MCF7 cells assessed as change in kidney morphology at 50 mg/kg,ip administrated every other day for 29 days; assay type: organism-based; conditions: in vivo, 696 h, time 29 day
# 4T1 [13] = test: Potentiation of etoposide induced antitumor activity against mouse 4T1 cells implanted in BALB/C mouse assessed as upregulation of CCL5 gene expression at 25 mg/kg,ip administrated daily for 12 days in presence of 8 mg/kg etoposide administration by RT-qPCR analysis; assay type: functional, organism-based; conditions: time 12.0 day
# [14] = Toxicity in BALB/C mouse implanted with mouse 4T1 cells assessed as change in spleen morphology at 25 mg/kg,ip administrated daily for 14 days; assay type: organism-based; conditions: in vivo, 336 h, time 14 day
# 4T1 [15] = test: Antitumor activity against mouse 4T1 cells implanted in BALB/C mouse assessed as upregulation of CD8A expression at 25 mg/kg,ip administrated daily for 14 days by immunohistochemical staining based analysis; assay type: functional, organism-based; conditions: time 14.0 day
# [16] = Toxicity in BALB/C mouse xenografted with human MCF7 cells assessed as change in spleen morphology at 50 mg/kg,ip administrated every other day for 29 days; assay type: organism-based; conditions: in vivo, 696 h, time 29 day
# MCF7 [17] = test: Antitumor activity against human MCF7 cells xenografted in BALB/C mouse assessed as reduction of tumor weight at 50 mg/kg,ip administrated every other day for 29 days; assay type: functional, organism-based; conditions: time 29.0 day
# 4T1 [18] = test: Antitumor activity against mouse 4T1 cells implanted in BALB/C mouse assessed as inhibition of tumor weight at 25 mg/kg,ip administrated daily for 14 days; assay type: functional, organism-based; conditions: time 14.0 day
# 4T1 [19] = test: Antitumor activity against mouse 4T1 cells implanted in BALB/C mouse assessed as downregulation of GREB1 gene expression at 25 mg/kg,ip administrated daily for 14 days by RT-qPCR analysis; assay type: functional, organism-based; conditions: time 14.0 day
# 4T1 [20] = test: Potentiation of etoposide induced antiproliferative activity against mouse 4T1 cells assessed as upregulation of DDX58 gene expression at 2.5 uM in presence of etoposide by RT-qPCR analysis; assay type: functional, cell-based
# MCF7 [21] = test: Synergistic antitumor activity against human MCF7 cells xenografted in BALB/C mouse assessed as downregulation of TFF1 gene expression at 25 mg/kg,ip administrated every other day for 15 days in presence of 5 mg/kg tamoxifen oral administration by RT-qPCR analysis; assay type: functional, organism-based; conditions: time 15.0 day
# MCF7 [22] = test: Potentiation of etoposide induced antiproliferative activity against human MCF7 cells assessed as upregulation of CCL5 gene expression at 2.5 uM in presence of etoposide by RT-qPCR analysis; assay type: functional, cell-based
# MDA-MB-231 = test: Antiproliferative activity against human MDA-MB-231 cells assessed as reduction in cell growth incubated for 7 days by celltiter 96 aqueous one solution cell proliferation assay; conditions: MDA-MB-231, 168 h
# MCF7 [23] = test: Antitumor activity against human MCF7 cells xenografted in BALB/C mouse assessed as downregulation of C-Myc gene expression at 50 mg/kg,ip administrated every other day for 29 days by RT-qPCR analysis; assay type: functional, organism-based; conditions: time 29.0 day
# MCF7 [24] = test: Antiproliferative activity against tamoxifen-resistant human MCF7 cells assessed as reduction in cell growth at 5 uM incubated for 7 days by celltiter 96 aqueous one solution cell proliferation assay; assay type: functional, cell-based; conditions: time 7.0 day
# MCF7 [25] = test: Synergistic antitumor activity against human MCF7 cells xenografted in BALB/C mouse assessed as downregulation of N-Myc gene expression at 25 mg/kg,ip administrated every other day for 15 days in presence of 5 mg/kg tamoxifen oral administration by RT-qPCR analysis; assay type: functional, organism-based; conditions: time 15.0 day
# 4T1 [26] = test: Antitumor activity against mouse 4T1 cells implanted in BALB/C mouse assessed as downregulation of NRIP1 gene expression at 50 mg/kg,ip administrated daily for 14 days by RT-qPCR analysis; assay type: functional, organism-based; conditions: time 14.0 day
# [27] = Toxicity in BALB/C mouse xenografted with human MDA-MB-231 cells assessed as change in kidney morphology at 25 mg/kg,ip administrated daily for 11 days; assay type: organism-based; conditions: in vivo, 264 h, time 11 day
# [28] = Toxicity in BALB/C mouse implanted with mouse 4T1 cells assessed as change in heart morphology at 25 mg/kg,ip administrated daily for 14 days; assay type: organism-based; conditions: in vivo, 336 h, time 14 day
# [29] = Toxicity in BALB/C mouse xenografted with human MDA-MB-231 cells assessed as change in liver morphology at 25 mg/kg,ip administrated daily for 11 days; assay type: organism-based; conditions: in vivo, 264 h, time 11 day
# MCF7 [30] = test: Synergistic antiproliferative activity against human MCF7 cells assessed as downregulation of CCND1 gene expression at 2.5 uM incubated for 6 hrs in presence of tamoxifen by RT-qPCR analysis; assay type: functional, cell-based
# [31] = Toxicity in BALB/C mouse xenografted with human MDA-MB-231 cells assessed as change in lung morphology at 50 mg/kg,ip administrated daily for 11 days; assay type: organism-based; conditions: in vivo, 264 h, time 11 day
compound,measurement,setting,value
Cc1ccc(-c2nc(N3CCN(CCN(C)C)CC3)ncc2-c2ccoc2)cc1.Cl.Cl,Activity,[1],Non-Toxic
same,Activity,4T1 [2],Active
same,Activity,MCF7 [3],Active
same,Activity,4T1 [4],Active
same,Activity,[5],Non-Toxic
same,Activity,MCF7 [6],Active
same,Activity,MCF7 [7],Active
same,Activity,MCF7 [8],Active
same,Activity,MCF7 [9],Active
same,Activity,MCF7 [10],Active
same,Activity,[11],Non-Toxic
same,Activity,[12],Non-Toxic
same,Activity,4T1 [13],Active
same,Activity,[14],Non-Toxic
same,Activity,4T1 [15],Active
same,Activity,[16],Non-Toxic
same,Activity,MCF7 [17],Active
same,Activity,4T1 [18],Active
same,Activity,4T1 [19],Active
same,Activity,4T1 [20],Active
same,Activity,MCF7 [21],Active
same,Activity,MCF7 [22],Active
same,EC50,MDA-MB-231,3.75 µM
same,Activity,MCF7 [23],Active
same,Activity,MCF7 [24],Active
same,Activity,MCF7 [25],Active
same,Activity,4T1 [26],Active
same,Activity,[27],Non-Toxic
same,Activity,[28],Non-Toxic
same,Activity,[29],Non-Toxic
same,Activity,MCF7 [30],Active
same,Activity,[31],Non-Toxic
